# Patent US20070213359A1 (ACADIA Pharmaceuticals Inc., priority 2005, published 2007)
# Like-named read-outs stand apart in the source and are kept apart here.
# What was measured:
# [1] = molecular target: T1, GHSR1a receptor (Homo sapiens, UniProt Q92847); assay: 125I-Ghrelin binding assay; details: displacement of 125I-ghrelin (0.053 nM), membranes of HEK293 cells transfected with GHSR1a; Cheng-Prussoff; '—' not defined; read-out: Binding pKi (converted)
# T1 construct: expressed in transfected cells; host or cells: HEK293 (membranes)
# T1 sequence (Q92847 whole entry): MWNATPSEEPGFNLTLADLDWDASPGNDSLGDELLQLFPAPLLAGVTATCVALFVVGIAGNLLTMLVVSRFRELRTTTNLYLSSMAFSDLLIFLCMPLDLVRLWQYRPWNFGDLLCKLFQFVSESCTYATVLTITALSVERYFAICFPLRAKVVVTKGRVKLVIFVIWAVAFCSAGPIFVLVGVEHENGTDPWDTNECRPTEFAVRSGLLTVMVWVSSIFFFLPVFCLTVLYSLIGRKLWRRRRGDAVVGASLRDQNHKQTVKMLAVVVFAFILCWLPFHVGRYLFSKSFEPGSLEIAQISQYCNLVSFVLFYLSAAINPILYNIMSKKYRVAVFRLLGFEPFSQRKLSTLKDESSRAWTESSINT
# Method: Plasmid DNA containing the GHSR1a receptor (12.5 ug/dish) in 0.675 ml DMEM was transfected into the cells by mixing with 180 ul PolyFect, 15 min later mixing in 2.25 ml 10% CS/DMEM, and transferring the mixture into the dish. At 16-18 h post transfection, medium was replaced with 25 ml fresh 10% FCS/1% PSG/DMEM to each dish for another 18-20 h. At approximately 48 hours post-transfection, cells were harvested in ice-cold membrane buffer (20 mM HEPES, 6 mM MgCl2, 1 mM EDTA, pH to 7.2) using a cell scraper, and pelleted by centrifugation.
# Pelleted cells were added to a nitrogen cavitation chamber and 900 bar of pressure applied for 30 min. The pressure was slowly released the cavitated cells collected in 50 ml falcon tubes. The tubes were centrifuged at 1000 rpm, 4° C. for 10 min, and the supernatant collected. This centrifugation and collection was repeated two more times until the supernatant was free of precipitate (membranes are still in suspension). The supernatant was poured into a 50 ml centrifuge tube and centrifuged at 10.000 rpm, 4° C. for 20 min. The supernatant was discarded and the pellet re-suspended in 750 μl membrane binding buffer using a chilled 1 ml syringe with 25G5/8 needle to re-suspend membranes. The protein concentration was determined using the BioRad Protein Assay Dye Reagent according to the manufacturers instructions. The protein concentration was adjusted to 5 mg/ml and aliquots snap-frozed and stored at −80 C until use.
# Membranes were thawed rapidly; diluted with binding buffer (25 mM Hepes+5 mM MgCl2, 1 mM CaCl2, 2.5 mM EDTA and 0.2% BSA) to a protein concentration of 0.8 ug/30 ul and placed on ice. 96-well plates (U-bottom wells) were prepared with serial dilutions (8 doses, 40 ul/w) of the test compounds. Membranes (30 uL/well) were then added, and incubated with test ligands for 30 min at room temperature with shaking. […] Binding was terminated by filtration through GF/B filters (presoaked with 0.1% polyethylenimine) with a Brandel 96-well harvester. The filters were washed with ice-cold binding buffer (150 ml/plate) and allowed to air-dry for 30 min. 50 ul MicroScient-20 cocktail was added to each dried well, the plates were sealed, and counted for 2 min/well using a TopCount scintillation counter (Packard).
# [2] = molecular target: Ghrelin receptor (Homo sapiens, UniProt Q92847); assay: Receptor Selection and Amplification Technology (R-SAT) assay; format: cell-based; set-up: expressed in transfected cells; host or cells: NIH3T3; details: for IC50: '—' not defined (nd used separately), read-out: RSAT pIC50 (converted); for Emax: read-out: RSAT Eff(%)
# Sequence of Ghrelin receptor (Q92847 whole entry): as above
# [3] = negative logarithm of ligand concentration causing 50% inhibition of constitutive receptor response, transfected NIH3T3 cells
# [4] = percent inhibition at saturating ligand, normalized to reference ligand Substance P analog = 100%
SMILES,Ki [1] [nM],"IC50 [2, 3] [nM]","RSAT Eff(%) [2, 4] [%]",IC50 ([2]; […]) [nM],Emax [2] [%],"Emax [2, 4] [%]"
COc1cccc2c(C(C)=O)cn(CCCN3CCCN(Cc4ccccc4Cl)CC3)c12,10,0.251,128,–,–,–
COc1cccc2c(C(=O)c3ccccc3)cn(CCCN3CCCN(Cc4ccccc4Cl)CC3)c12,3.98,–,–,0.398,98,–
COc1cccc2c(C(=O)Cc3ccccc3)cn(CCCN3CCCN(Cc4ccc(F)cc4)CC3)c12,7.94,–,–,0.398,87,–
COc1cccc2c(C(=O)Cc3ccccc3)cn(CCCN3CCCN(Cc4ccccc4Cl)CC3)c12,6.31,–,–,0.501,92,–
COc1cccc2c(C(=O)NCc3cccc(Cl)c3)cn(CCCN3C4CCC3CC(Oc3ccccc3Cl)C4)c12 (stereo not drawn),20,3.98,99,–,–,–
CC(=O)c1cn(CCCN2C3CCC2CC(Oc2ccc(Cl)cc2)C3)c2c(C)cccc12 (stereo not drawn),126,5.01,–,–,–,99
CC(=O)c1cn(CCCN2CCC(Oc3ccc(F)cc3)CC2)c2c(C)cccc12,200,5.01,–,–,–,72
CC(=O)c1cn(CCCN2CCCN(Cc3ccccc3Cl)CC2)c2c(Br)cccc12,10,5.01,–,–,–,95
COc1cccc2c(C(=O)NCc3cccc(C)c3)cn(CCCN3C4CCC3CC(Oc3ccccc3Cl)C4)c12 (stereo not drawn),20,5.01,121,–,–,–
COc1cccc2c(C(=O)c3ccccc3)cn(CCCN3C4CCC3CC(CC(=O)c3ccccc3)C4)c12 (stereo not drawn),100,–,–,5.01,101,–
CC(=O)c1cn(CCCN2CCCN(Cc3ccccc3Cl)CC2)c2c(C#N)cccc12,63.1,6.31,–,–,–,98
COc1cccc2c(C(=O)c3ccccc3)cn(CCCN3CCC(Oc4ccccc4Cl)CC3)c12,158,–,–,6.31,79,–
COc1cccc2c(C(=O)NCC(C)C)cn(CCCN3C4CCC3CC(Oc3ccc(Cl)cc3)C4)c12 (stereo not drawn),100,6.31,107,–,–,–
COc1cccc2c(C(=O)c3ccccc3)cn(CCCN3CCC(Oc4ccc(Cl)cc4)CC3)c12,100,–,–,6.31,93,–
COc1cccc2c(C(C)=O)cn(CCCN3CCN(c4ncccc4C(F)(F)F)CC3)c12,1000,6.31,–,–,–,108
COc1cccc2c(C(=O)c3ccccc3)cn(CCCN3CCN(Oc4cccc(Cl)c4)CC3)c12,7.94,–,–,6.31,79,–
COc1cccc2c(C(C)=O)cn(CCCN3CCN(c4c(C)cccc4C)CC3)c12,1000,6.31,–,–,–,107
COc1cccc2c(C(=O)c3ccccc3)cn(CCCN3C4CCC3CC(Oc3ccc(Cl)cc3)C4)c12 (stereo not drawn),100,–,–,7.94,91,–
CC(=O)c1cn(CCCN2CCC(Oc3cccc(Cl)c3)CC2)c2c(C#N)cccc12,158,7.94,–,–,–,101
CCCCC[C@H]1C[C@H]2CC[C@@H](C1)N2CCCn1cc(C(=O)NCC(C)C)c2cccc(OC)c21,79.4,7.94,–,–,135,–
CCCCC1CCN(CCCn2cc(C(=O)NCC(C)C)c3cccc(OC)c32)CC1,200,–,–,7.94,93,–
COc1cccc2c(C(C)=O)cn(CCCN3CCN(c4cccc(Cl)c4)CC3)c12,501,7.94,–,–,–,99
CC(=O)c1cn(CCCN2C3CCC2CC(CCc2ccccc2)C3)c2c(C#N)cccc12 (stereo not drawn),39.8,7.94,–,–,106,–
CC(=O)c1cn(CCCN2C3CCC2CC(CCc2ccccc2)C3)c2c(Br)cccc12 (stereo not drawn),79.4,7.94,–,–,–,107

SMILES,Ki [1] [nM],"IC50 [2, 3] [nM]","RSAT Eff(%) [2, 4] [%]",IC50 ([2]; […]) [nM],Emax [2] [%],"Emax [2, 4] [%]"
COc1cccc2c(C(=O)NCc3cccc(Cl)c3)cn(CCCN3CCC(Oc4cccc(Cl)c4)CC3)c12,63.1,7.94,–,–,100,–
COc1cccc2c(C(=O)NCC(C)C)cn(CCCN3CCC(Oc4ccccc4Cl)CC3)c12,63.1,7.94,–,–,100,–
CC(=O)c1cn(CCCN2CCCN(Cc3ccccc3Cl)CC2)c2c(Cl)cccc12,79.4,7.94,–,–,–,92
COc1cccc2c(C(=O)Cc3ccccc3)cn(CCCN3CCN(CCOc4ccc(Cl)cc4)CC3)c12,3160,–,–,7.94,82,–
COc1cccc2c(C(C)=O)cn(CCCN3CCN(c4cccc(Cl)c4Cl)CC3)c12,398,7.94,–,–,–,103
CCCCC1CCN(CCCn2cc(C(C)=O)c3cccc(C)c32)CC1,316,7.94,–,–,–,78
COc1cccc2c(C(=O)NCC(C)C)cn(CCCN3C4CCC3CC(Oc3ccccc3Cl)C4)c12 (stereo not drawn),100,10,116,–,–,–
CC(=O)c1cn(CCCN2CCC(c3nc4ccccc4s3)CC2)c2c(Br)cccc12,200,10,–,–,–,81
COc1cccc2c(C(C)=O)cn(CC(C)CN3CCCN(Cc4ccccc4Cl)CC3)c12 (stereo not drawn),100,10,–,–,–,123
COc1cccc2c(C(C)=O)cn(CCCN3C4CC[C@H]3C[C@@H](Oc3ccc(Cl)cc3)C4)c12,200,–,–,10,114,–
COc1ccccc1C1CCN(CCCn2cc(C(=O)c3ccccc3)c3cccc(OC)c32)CC1,158,–,–,12.6,88,–
COc1cccc2c(C(=O)c3ccccc3)cn(CCCN3C4CCC3CC(Oc3ccc(F)cc3)C4)c12 (stereo not drawn),158,–,–,12.6,106,–
COc1cccc2c(C(C)=O)cn(CCCN3C4CCC3CC(Oc3ccc(Cl)cc3)C4)c12 (stereo not drawn),501,12.6,113,–,–,–
COc1cccc2c(C(C)=O)cn(CCCN3CCN(c4ccc(C#N)cc4)CC3)c12,631,12.6,–,–,–,90
COc1cccc2c(C(=O)Cc3ccccc3)cn(CCCN3C4CCC3CC(CC(=O)c3ccc(Cl)cc3)C4)c12 (stereo not drawn),31.6,–,–,12.6,167,–
CC(=O)c1c(C)n(CCCN2C3CCC2CC(CCc2ccc(Cl)cc2)C3)c2c(Br)cccc12 (stereo not drawn),316,12.6,–,–,–,69
CC(=O)c1cn(CCCN2CCC(Oc3ccccc3Cl)CC2)c2c(Br)cccc12,126,12.6,–,–,–,96
COc1cccc2c(C(=O)c3ccccc3)cn(CCCN3CCN(CCOc4ccccc4)CC3)c12,251,–,–,12.6,98,–
COc1cccc2c(C(=O)Cc3ccccc3)cn(CCCN3CCN(CCOc4ccccc4)CC3)c12,39.8,–,–,12.6,99,–
COc1cccc2c(C(C)=O)cn(CCCN3CCC(Oc4ccccc4Cl)CC3)c12,794,15.8,98,–,–,–
CC(=O)c1cn(CCCN2CCC(Oc3cccc(Cl)c3)CC2)c2ncccc12,316,15.8,–,–,–,124
CCCCC1CCN(CCCn2cc(C(=O)NCc3cccc(C)c3)c3cccc(OC)c32)CC1,316,–,–,15.8,72,–
COc1cccc2c(C(C)=O)cn(CCCN3CCN(c4ccc(F)cc4)CC3)c12,501,15.8,–,–,–,95
